From patent US20260091020A1, “TREATMENT OF ACUTE CANNABINOID OVERDOSE” (Anebulo Pharmaceuticals, Inc., priority 2022, published 2026)
Read-outs that look alike come from different tables or passages of the source.

Test: Plasma PK of ANEB-001 and THC, 50 and 100 mg oral Compound 1 with THC (Example 2)
Assay type: in vivo, human
Settings: for concentration at 0 h / concentration at 0.33 h / concentration at 0.67 h / concentration at 1 h / concentration at 2 h / concentration at 3 h / concentration at 4 h / concentration at 5 h / concentration at 24 h / AUC(0-t) / Cmax / Tmax: human, in vivo; for Tmax: read-out: THC plasma tmax, Median
Protocol: A phase 2 clinical study was conducted using the design outlined in FIG. 1. Briefly, 60 adult healthy volunteers ages 18-45 (20 per arm) were selected for a randomized, double blind placebo-controlled study. Volunteers were divided into three groups: (1) THC (Δ9-Tetrahydrocannabinol, 10.5 mg)+placebo; (2) THC (10.5 mg)+Compound 1 (50 mg); and (3) THC (10.5 mg)+Compound 1 (100 mg). […] A followup evaluation was also performed after 14 days. Primary endpoints included inhibition of central nervous system effects of THC using (a) visual analog scale “feeling high”; (b) visual analog scale “alertness”; (c) body sway; (d) heart rate. Secondary endpoints included additional efficacy metrics, safety/tolerability, PK, and PK/PD correlations.
Following the general methods of Example 1, pharmacodynamic properties were measured for Compound 1 (FIGS. 13A-13F).

[1] = 10 mg THC + 50 mg ANEB-001, read-out: THC Concentration in Plasma, Mean
[2] = 10 mg THC + 50 mg ANEB-001, read-out: THC Concentration in Plasma, Median
[3] = 10 mg THC + 100 mg ANEB-001, read-out: THC Concentration in Plasma, Mean
[4] = 10 mg THC + 100 mg ANEB-001, read-out: THC Concentration in Plasma, Median
[5] = 10 mg THC + Placebo, read-out: THC Concentration in Plasma, Mean
[6] = 10 mg THC + Placebo, read-out: THC Concentration in Plasma, Median

CCCCCc1cc(O)c2c(c1)OC(C)(C)[C@@H]1CCC(C)=C[C@@H]21 [THC, Δ9-tetrahydrocannabinol]
THC plasma tlag, Median (10 mg THC + 50 mg ANEB-001): 0.00 h | THC plasma AUClast, Mean (10 mg THC + 100 mg ANEB-001): 6.128 ng·h/mL | THC plasma tlag, Median (10 mg THC + 100 mg ANEB-001): 0.00 h | THC plasma AUClast, Mean (10 mg THC + Placebo): 5.722 ng·h/mL | THC plasma Cmax, Median (10 mg THC + Placebo): 2.81 ng/mL | THC plasma tlag, Median (10 mg THC + Placebo): 0.00 h | concentration at 0 h [1]: 0 ng/mL | concentration at 0 h [2]: 0 ng/mL | concentration at 0.33 h [1]: 1.27 ng/mL | concentration at 0.33 h [2]: 0.738 ng/mL | concentration at 0.67 h [1]: 2.9 ng/mL | concentration at 0.67 h [2]: 2.41 ng/mL | concentration at 1 h [1]: 2.76 ng/mL | concentration at 1 h [2]: 2.6 ng/mL | concentration at 2 h [1]: 1.4 ng/mL | concentration at 2 h [2]: 1.18 ng/mL | concentration at 3 h [1]: 0.721 ng/mL | concentration at 3 h [2]: 0.689 ng/mL | concentration at 4 h [1]: 0.432 ng/mL | concentration at 4 h [2]: 0.379 ng/mL | concentration at 5 h [1]: 0.287 ng/mL | concentration at 5 h [2]: 0.264 ng/mL | concentration at 24 h [1]: 0.00555 ng/mL | concentration at 24 h [2]: 0 ng/mL | AUC(0-t) (10 mg THC + 50 mg ANEB-001, read-out: THC plasma AUClast, Geometric Mean): 5.65 ng·h/mL | AUC(0-t) (10 mg THC + 50 mg ANEB-001, read-out: THC plasma AUClast, Mean): 5.98 ng·h/mL | AUC(0-t) (10 mg THC + 50 mg ANEB-001, read-out: THC plasma AUClast, Median): 5.51 ng·h/mL | Cmax (10 mg THC + 50 mg ANEB-001, read-out: THC plasma Cmax, Geometric Mean): 3.14 ng/mL | Cmax (10 mg THC + 50 mg ANEB-001, read-out: THC plasma Cmax, Mean): 3.4 ng/mL | Cmax (10 mg THC + 50 mg ANEB-001, read-out: THC plasma Cmax, Median): 3.12 ng/mL | Tmax (10 mg THC + 50 mg ANEB-001): 1 h | concentration at 0 h [3]: 0 ng/mL | concentration at 0 h [4]: 0 ng/mL | concentration at 0.33 h [3]: 1.72 ng/mL | concentration at 0.33 h [4]: 0.986 ng/mL | concentration at 0.67 h [3]: 3.54 ng/mL | concentration at 0.67 h [4]: 2.41 ng/mL | concentration at 1 h [3]: 2.7 ng/mL | concentration at 1 h [4]: 1.88 ng/mL | concentration at 2 h [3]: 1.28 ng/mL | concentration at 2 h [4]: 1.05 ng/mL | concentration at 3 h [3]: 0.718 ng/mL | concentration at 3 h [4]: 0.639 ng/mL | concentration at 4 h [3]: 0.446 ng/mL | concentration at 4 h [4]: 0.35 ng/mL | concentration at 5 h [3]: 0.314 ng/mL | concentration at 5 h [4]: 0.228 ng/mL | concentration at 24 h [3]: 0.006 ng/mL | concentration at 24 h [4]: 0 ng/mL | AUC(0-t) (10 mg THC + 100 mg ANEB-001, read-out: THC plasma AUClast, Geometric Mean): 5.3 ng·h/mL | AUC(0-t) (10 mg THC + 100 mg ANEB-001, read-out: THC plasma AUClast, Median): 4.94 ng·h/mL | Cmax (10 mg THC + 100 mg ANEB-001, read-out: THC plasma Cmax, Geometric Mean): 3.08 ng/mL | Cmax (10 mg THC + 100 mg ANEB-001, read-out: THC plasma Cmax, Mean): 3.77 ng/mL | Cmax (10 mg THC + 100 mg ANEB-001, read-out: THC plasma Cmax, Median): 2.46 ng/mL | Tmax (10 mg THC + 100 mg ANEB-001): 0.67 h | concentration at 0 h [5]: 0 ng/mL | concentration at 0 h [6]: 0 ng/mL | concentration at 0.33 h [5]: 1.17 ng/mL | concentration at 0.33 h [6]: 0.776 ng/mL | concentration at 0.67 h [5]: 2.29 ng/mL | concentration at 0.67 h [6]: 1.81 ng/mL | concentration at 1 h [5]: 2.49 ng/mL | concentration at 1 h [6]: 2.27 ng/mL | concentration at 2 h [5]: 1.44 ng/mL | concentration at 2 h [6]: 1.6 ng/mL | concentration at 3 h [5]: 1.01 ng/mL | concentration at 3 h [6]: 0.838 ng/mL | concentration at 4 h [5]: 0.455 ng/mL | concentration at 4 h [6]: 0.443 ng/mL | concentration at 5 h [5]: 0.285 ng/mL | concentration at 5 h [6]: 0.248 ng/mL | concentration at 24 h [5]: 0 ng/mL | concentration at 24 h [6]: 0 ng/mL | AUC(0-t) (10 mg THC + Placebo, read-out: THC plasma AUClast, Geometric Mean): 5.16 ng·h/mL | AUC(0-t) (10 mg THC + Placebo, read-out: THC plasma AUClast, Median): 4.96 ng·h/mL | Cmax (10 mg THC + Placebo, read-out: THC plasma Cmax, Geometric Mean): 2.76 ng/mL | Cmax (10 mg THC + Placebo, read-out: THC plasma Cmax, Mean): 3.15 ng/mL | Tmax (10 mg THC + Placebo): 1 h
